From ChEMBL document CHEMBL3232874, “The applications of binuclear metallohydrolases in medicine: recent advances in the design and development of novel drug leads for purple acid phosphatases, metallo-β-lactamases and arginases” (Eur J Med Chem, 2014) come the findings set out here.

Square brackets hold non-standard residues; d marks the D form. Peptide text beside a SMILES is read from it. * marks the point of attachment. F2Pmp = N[C@@H](Cc1ccc(C(F)(F)P(=O)(O)O)cc1)C(=O)O; Phe(4-COOH) = N[C@@H](Cc1ccc(C(=O)O)cc1)C(=O)O; Fmoc = O=C(OCC1c2ccccc2-c2ccccc21)*

Assay [1] is described as follows: Inhibition of metallo-beta-lactamase L1 (unknown origin).
A short description of assay [2]: Inhibition of metallo-beta-lactamase VIM2 (unknown origin).
Assay [3] is described as follows: Inhibition of metallo-beta-lactamase BcII (unknown origin).
Assay [4] can be described thus: Inhibition of metallo-beta-lactamase CphA (unknown origin).
Assay [5] in a line: Inhibition of Plasmodium berghei arginase.
The nature of assay [6]: Inhibition of human arginase.
Assay [7] in a line: Inhibition of pig purple acid phosphatase at pH 4.9. Also noted: species or system Sus scrofa.
Assay [8] is described as follows: Inhibition of pig purple acid phosphatase at pH 3.3. Also on record: species or system Sus scrofa.
Assay [9] can be described thus: Inhibition of human recombinant purple acid phosphatase at pH 4.9.
The nature of assay [10]: Inhibition of human recombinant purple acid phosphatase at pH 3.3.
In assay [11] the target is T1, Fe(3+)-Zn(2+) purple acid phosphatase (Phaseolus vulgaris, UniProt P80366).
T1 sequence (P80366 whole entry): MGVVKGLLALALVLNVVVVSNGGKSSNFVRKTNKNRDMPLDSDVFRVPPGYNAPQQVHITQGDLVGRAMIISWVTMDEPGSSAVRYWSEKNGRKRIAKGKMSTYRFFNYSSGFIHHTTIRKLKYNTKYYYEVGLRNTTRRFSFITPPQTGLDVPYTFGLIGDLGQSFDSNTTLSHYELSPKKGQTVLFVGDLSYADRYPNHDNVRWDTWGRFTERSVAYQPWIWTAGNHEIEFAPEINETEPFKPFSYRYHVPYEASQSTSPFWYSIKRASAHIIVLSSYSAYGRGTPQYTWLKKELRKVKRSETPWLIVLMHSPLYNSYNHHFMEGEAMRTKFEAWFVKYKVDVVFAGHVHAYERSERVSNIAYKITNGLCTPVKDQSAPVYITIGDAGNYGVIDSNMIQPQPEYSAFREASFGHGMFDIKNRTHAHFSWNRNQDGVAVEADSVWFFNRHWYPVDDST
The assay can be described thus: Inhibition of red kidney beans purple acid phosphatase.

The target in a further assay is Beta-lactamase L1 (Stenotrophomonas maltophilia, UniProt P52700). The assay can be described thus: Inhibition of Stenotrophomonas maltophilia metallo-beta-lactamase L1 after 5 mins.
Assay [12] can be described thus: Inhibition of metallo-beta-lactamase IMP-1 (unknown origin).
For another assay, the target named is T2, Arginase-1 (Rattus norvegicus, UniProt P07824).
T2 sequence (P07824 whole entry): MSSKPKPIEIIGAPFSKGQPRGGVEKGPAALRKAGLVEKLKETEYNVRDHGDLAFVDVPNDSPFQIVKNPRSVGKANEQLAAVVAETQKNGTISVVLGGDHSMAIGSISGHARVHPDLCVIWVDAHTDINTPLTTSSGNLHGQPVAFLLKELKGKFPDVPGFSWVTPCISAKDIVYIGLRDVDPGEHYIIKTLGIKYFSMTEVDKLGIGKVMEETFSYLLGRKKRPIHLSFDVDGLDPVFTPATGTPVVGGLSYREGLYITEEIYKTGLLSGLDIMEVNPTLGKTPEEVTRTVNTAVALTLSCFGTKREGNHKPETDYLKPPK
The assay can be described thus: Inhibition of rat liver arginase.

Assay [13] can be described thus: Inhibition of mouse macrophage arginase.
A short description of assay [14]: Inhibition of Bacillus cereus metallo-beta-lactamase BcII.
The nature of assay [15]: Inhibition of Bacillus cereus 5/B/6 metallo-beta-lactamase […] incubated for 1 min prior to substrate addition by spectrophotometry.
The nature of assay [16]: Inhibition of metallo-beta-lactamase CcrA (unknown origin).
The nature of assay [17]: Inhibition of human purple acid phosphatase.
The target in assay [18] is Metallo-beta-lactamase type 2 (Bacteroides fragilis, UniProt P25910). The assay can be described thus: Competitive inhibition of Bacteroides fragilis metallo-beta-lactamase CcrA.
Assay [19] is described as follows: Inhibition of metallo-beta-lactamase IMP-1 (unknown origin) using nitrocefin as substrate incubated for 15 mins prior to substrate addition.
Assay [20] in a line: Inhibition of arginase (unknown origin). Also on record: species or system Homo sapiens.
Assay [21] can be described thus: Competitive inhibition of Bacillus cereus 569/H metallo-beta-lactamase BcII by Eadie-Hofstee plot analysis.

Beta-lactamase L1, sequence (P52700 whole entry): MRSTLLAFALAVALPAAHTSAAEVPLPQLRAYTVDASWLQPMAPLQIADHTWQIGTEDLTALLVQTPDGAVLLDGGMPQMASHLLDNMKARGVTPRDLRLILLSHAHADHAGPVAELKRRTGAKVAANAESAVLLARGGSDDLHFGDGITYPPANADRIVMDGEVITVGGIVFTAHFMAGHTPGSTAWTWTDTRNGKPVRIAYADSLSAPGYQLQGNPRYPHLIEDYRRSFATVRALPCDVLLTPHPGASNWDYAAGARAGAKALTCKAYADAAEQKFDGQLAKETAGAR
Metallo-beta-lactamase type 2, sequence (P25910 whole entry): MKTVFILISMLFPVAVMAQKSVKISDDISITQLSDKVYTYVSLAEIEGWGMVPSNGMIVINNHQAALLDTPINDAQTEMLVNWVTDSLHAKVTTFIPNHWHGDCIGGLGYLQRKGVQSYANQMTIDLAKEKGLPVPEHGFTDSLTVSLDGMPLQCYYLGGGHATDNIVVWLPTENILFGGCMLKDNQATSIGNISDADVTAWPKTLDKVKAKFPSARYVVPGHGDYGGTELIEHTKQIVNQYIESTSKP

Consider `O=C(COc1ccccc1)NC(Cc1ccccc1)C(=O)C(F)(F)F` (stereo unspecified), for which the Ki in assay [1], in assay [2], in assay [3] and in [4] was 1500 nM each time. `N[C@@H](CCCC[N+](=O)[O-])C(=O)O`: the Ki turned out to be 11 µM in assay [5] and 60 µM in [6].

Regarding `C[C@H](NC(=O)[C@H](Cc1ccc(OCC(=O)O)c(C(=O)O)c1)NC(=O)[C@H](CCC(=O)O)NC(=O)OCC1c2ccccc2-c2ccccc21)C(N)=O`, the inhibition constant (Ki) was 146 µM in assay [7] and 112 µM in assay [8]. As for `C[C@H](NC(=O)[C@H](Cc1ccc(OC(C(=O)O)C(=O)O)cc1)NC(=O)[C@H](CCC(=O)O)NC(=O)OCC1c2ccccc2-c2ccccc21)C(=O)O`, the values for the Ki in [9] and in assay [10] were 26 µM and 14 µM, respectively. On to `O=P(O)(O)CS`, for which the IC50 in assay [11] came to 80 µM. `COC(=O)c1c(O)ccc2nc3c(C(=O)O)cccc3nc12` displayed an IC50 against Beta-lactamase L1 of 1000 nM. `CC(S)C(=O)O` (stereo unspecified) showed an INH in assay [12] of 0.19 µM. Regarding `C[C@H](NC(=O)[C@H](Cc1ccc(C(=O)O)cc1)NC(=O)[C@H](CCC(=O)O)NC(=O)OCC1c2ccccc2-c2ccccc21)C(N)=O` (Fmoc-Glu-[Phe(4-COOH)]-Ala-NH2), the Ki was 161 µM in assay [7] and 100 µM in [8]. In the case of `N=C(NO)NCC[C@H](N)C(=O)O` [NOR-NOHA], the figures for the IC50 (against Arginase-1; in assay [13]) were 2000 nM and 50 µM, respectively.

In [14], `O=C(O)C(S)c1ccccc1` (stereo unspecified) registered a Ki of 90 nM. `C[C@H](NC(=O)[C@H](Cc1ccc(C(C(=O)O)C(=O)O)cc1)NC(=O)[C@H](CCC(=O)O)NC(=O)OCC1c2ccccc2-c2ccccc21)C(N)=O`: the Ki in assay [7] is 38 µM; in [8] it was 6 µM. Compound `CCOC(=O)CS` yielded an INH in assay [12] of 1.4 µM. For `COc1ccc(C(S)C(=O)O)cc1` (stereo unspecified), the Ki in assay [14] is 90 nM. Regarding `O=C(O)CS`, the INH in [12] amounted to 0.23 µM.

Take `O=C(O)c1cccc(C(=O)O)n1` [DIPICOLINIC ACID]: the results for the half-maximal inhibitory concentration (IC50) in [1] and in assay [3] were 7.8 µM and 21.8 µM, respectively. Turning to `C[C@H](NC(=O)[C@H](Cc1ccc(OC(F)(C(=O)O)C(=O)O)cc1)NC(=O)[C@H](CCC(=O)O)NC(=O)OCC1c2ccccc2-c2ccccc21)C(=O)O`, the Ki came out at 74 µM in [9] and 36 µM in [10]. On to `O=C(COc1ccccc1)NC(Cc1ccccc1)C(O)C(F)(F)F` (stereo unspecified), for which the inhibition constant Ki in assay [1], in [2], in [3] and in assay [4] was 1500 nM throughout. `O=S(=O)(N/N=C/c1c2ccccc2cc2ccccc12)c1ccc2ccccc2c1`: in assay [15], the Ki was found to be 20 nM. In assay [12], this compound gave an IC50 of 1600 nM. The compound `O=P(O)(O)CCCS` came in with an IC50 in assay [11] of 160 µM. In the case of `CC(=O)Oc1cc(C[C@H](NC(=O)[C@H](CCC(=O)O)NC(=O)OCC2c3ccccc3-c3ccccc32)C(=O)N[C@@H](C)C(N)=O)ccc1OCC(=O)O`, the Ki was determined as 777 µM in [7] and 413 µM in [8]. `OCCS` came in with an INH in assay [12] of 12 µM. Regarding `COC1OC(C)=Cc2oc3cc(O)c(O)c(C(=O)O)c3c(=O)c21` (stereo unspecified), the figures for the Ki in assay [3], in assay [16] and in assay [12] were 79000 nM, 3.4 µM and 17 µM, respectively. For the compound `OCCCS`, in [12], the INH worked out at 2.5 µM.

For `CC(NC(=O)COc1ccccc1)C(=O)C(F)(F)F` (stereo unspecified), the inhibitory constant (Ki) in [1], in [2], in assay [3] and in assay [4] was 1500 nM in each case. On to `C[C@H](NC(=O)[C@H](Cc1ccc(CC(=O)O)c(C(=O)O)c1)NC(=O)[C@H](CCC(=O)O)NC(=O)OCC1c2ccccc2-c2ccccc21)C(N)=O`, for which the Ki worked out at 279 µM in assay [7] and 201 µM in [8]. Consider `C[C@H](NC(=O)[C@H](Cc1ccc(C(F)(F)P(=O)(O)O)cc1)NC(=O)[C@H](CCC(=O)O)NC(=O)OCC1c2ccccc2-c2ccccc21)C(=O)O` (Fmoc-Glu-[F2Pmp]-Ala-OH), for which the inhibitory constant (Ki) in [9] amounted to 63 µM; in [10] it was 67 µM. In turn, `O=C(O)c1ccccc1S` [THIOSALICYLIC ACID] showed an inhibitory constant (Ki) in assay [14] of 9200 nM. Take `O=C(O)CP(=O)(O)O` [FOSFONET]: the Ki in [11] is 590 µM. Turning to `O=C(O)CCS`, the INH in assay [12] turned out to be 1.2 µM. In assay [11], `O=P(O)(O)CCS` gave a 50% inhibitory concentration (IC50) of 3000 µM. Regarding `O=C(O)C(S)c1ccc(F)cc1` (stereo unspecified), affinity in [14] was put at a Ki of 90 nM. For `O=P(O)(O)Cc1cccc2ccccc12`, the IC50 in assay [17] (read-out: IC50) was determined as 30 µM. Still for that read-out and setting: to `O=C(c1ccccc1)C(C(=O)c1ccccc1)(c1cccc2ccccc12)P(=O)(O)O` belongs 1.4 µM.

On to `CCOC(=O)CCS`, for which the INH in assay [12] was determined as 0.25 µM. `c1ccc(-c2nnn[nH]2)c(-c2ccc(Cn3c4ccccc4c4ccccc43)cc2)c1` registered an IC50 in assay [18] of 300 nM. Compound `O=P(O)(O)CP(=O)(O)O` [MEDRONIC ACID] gave an inhibition constant (Ki) in assay [11] of 140 µM. Consider `O[C@H](CS)[C@H](O)CS`, for which the INH in assay [12] stood at 0.55 µM. With `O=P(O)(O)C(O)c1cccc2ccccc12` (stereo unspecified), the half-maximal inhibitory concentration (IC50) result in assay [17] is “Not Active”. In the case of `O=C(O)[C@@H](Cc1ccc2c(c1)OCO2)[C@H](Cc1ccc2c(c1)OCO2)C(=O)O`, in assay [19], the IC50 was found to be 9 nM. For the compound `NNC(N)=S` [THIOSEMICARBAZIDE], the inhibitory constant (Ki) in assay [20] was determined as 100 µM. As for `CC(NC(=O)COc1ccccc1)C(O)C(F)(F)F` (stereo unspecified), the inhibition constant Ki in assay [1], in assay [2], in assay [3] and in assay [4] was 1500 nM throughout. Regarding `SCc1ccccc1` [BENZENEMETHANETHIOL], the IC50 in assay [14] was 9.2 µM. Turning to `O=P(O)(O)C(Cc1ccc(-c2ccccc2)cc1)c1cccc2ccccc12` (stereo unspecified), the IC50 in assay [17] (read-out: IC50) amounted to 6.3 µM. Turning to `C[C@H](NC(=O)[C@H](Cc1ccc(C(F)(C(=O)O)C(=O)O)cc1)NC(=O)[C@H](CCC(=O)O)NC(=O)OCC1c2ccccc2-c2ccccc21)C(N)=O`, the values for the inhibitory constant (Ki) in assay [7] and in assay [8] were 49 µM and 8 µM, respectively. As for `O=C(O)CCP(=O)(O)O`, the inhibition constant Ki in assay [11] was determined as 160 µM.

In assay [12], `O[C@H](CS)[C@@H](O)CS` yielded an INH of 2.2 µM. Compound `COC(=O)c1cc(SCC(NC(C)=O)C(=O)OC)cc2nc3c(C(=O)O)cccc3nc12` (stereo unspecified) gave a concentration for half-maximal inhibition (IC50) against Beta-lactamase L1 of 1000 nM. In turn, `O=P(O)(O)c1ccccc1S` displayed an IC50 in assay [11] of 350 µM. Compound `CC(=O)N[C@H]1[C@H](O[C@H]2C[C@@H](C(=O)NCCS(=O)(=O)O)N[C@@H]2CO)O[C@H](CO)[C@@H](OS(=O)(=O)O)[C@@H]1O` [BULGECIN A] yielded a half-maximal inhibitory concentration (IC50) in assay [21] of 230 µM.
